Several values for one entry are separate records, joined by “and”; a condition that tells them apart may be missing. Equal values may be shown once.
System: NCI-H196 complex spheroid viability
Assay: Anticancer human tumor NCI-H196 cell line growth inhibition [LSD1];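 note: spheroids exposed to agents for 7 days before readout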
Conditions: for viability, T/C: stronger effect = lower value; active = viability on the fitted dose curve at most 10% of control; inactive = the rest
Summary of the method: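 Complex spheroids of tumor cells with HUVEC and human MSCs, exposed to iadademstat combined with other agents. Each agent tested in half-log steps from near clinical Cmax (else 10 microM top), DMSO ≤0.25%.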

[1] = curve of first compound, second compound 0.1 µM
[2] = curve of first compound, second compound 0.316 µM
[3] = curve of first compound, second compound 1 µM
[4] = curve of first compound, second compound 3.16 µM
[5] = curve of first compound, second compound 10 µM
[6] = second compound 0.1 µM, first compound 0.000316 µM
[7] = second compound 0.1 µM, first compound 0.001 µM
[8] = second compound 0.1 µM, first compound 0.00316 µM
[9] = second compound 0.1 µM, first compound 0.01 µM
[10] = second compound 0.1 µM, first compound 0.0316 µM
[11] = second compound 0.1 µM, first compound 0.1 µM
[12] = second compound 0.316 µM, first compound 0.000316 µM
[13] = second compound 0.316 µM, first compound 0.001 µM
[14] = second compound 0.316 µM, first compound 0.00316 µM
[15] = second compound 0.316 µM, first compound 0.01 µM
[16] = second compound 0.316 µM, first compound 0.0316 µM
[17] = second compound 0.316 µM, first compound 0.1 µM
[18] = second compound 1 µM, first compound 0.000316 µM
[19] = second compound 1 µM, first compound 0.001 µM
[20] = second compound 1 µM, first compound 0.00316 µM
[21] = second compound 1 µM, first compound 0.01 µM
[22] = second compound 1 µM, first compound 0.0316 µM
[23] = second compound 1 µM, first compound 0.1 µM
[24] = second compound 3.16 µM, first compound 0.000316 µM
[25] = second compound 3.16 µM, first compound 0.001 µM
[26] = second compound 3.16 µM, first compound 0.00316 µM
[27] = second compound 3.16 µM, first compound 0.01 µM
[28] = second compound 3.16 µM, first compound 0.0316 µM
[29] = second compound 3.16 µM, first compound 0.1 µM
[30] = second compound 10 µM, first compound 0.000316 µM
[31] = second compound 10 µM, first compound 0.001 µM
[32] = second compound 10 µM, first compound 0.00316 µM
[33] = second compound 10 µM, first compound 0.01 µM
[34] = second compound 10 µM, first compound 0.0316 µM
[35] = second compound 10 µM, first compound 0.1 µM
[36] = second compound 0.1 µM, first compound 0.316 µM
[37] = second compound 0.1 µM, first compound 1 µM
[38] = second compound 0.316 µM, first compound 0.316 µM
[39] = second compound 0.316 µM, first compound 1 µM
[40] = second compound 1 µM, first compound 0.316 µM
[41] = second compound 1 µM, first compound 1 µM
[42] = second compound 3.16 µM, first compound 0.316 µM
[43] = second compound 3.16 µM, first compound 1 µM
[44] = second compound 10 µM, first compound 0.316 µM
[45] = second compound 10 µM, first compound 1 µM

Cn1ncnc1C1c2n[nH]c(=O)c3cc(F)cc(c23)NC1c1ccc(F)cc1 (stereo unspecified) + NC1CCC(NC2CC2c2ccccc2)CC1
> 100 nM: IC50 [1] | IC50 [2] | IC50 [3] | IC50 [4] | IC50 [5]
inactive: viability, T/C [6] 93.4% | viability, T/C [7] 110% | viability, T/C [8] 95.6% | viability, T/C [9] 94.8% | viability, T/C [10] 98.5% | viability, T/C [11] 99.6% | viability, T/C [12] 100% | viability, T/C [13] 102% | viability, T/C [14] 101% | viability, T/C [15] 92.8% | viability, T/C [16] 93.9% | viability, T/C [17] 92.5% | viability, T/C [18] 95.5% | viability, T/C [19] 98.4% | viability, T/C [20] 97.4% | viability, T/C [21] 98.1% | viability, T/C [22] 94.3% | viability, T/C [23] 94.4% | viability, T/C [24] 90.7% | viability, T/C [25] 99.8% | viability, T/C [26] 98.3% | viability, T/C [27] 88.8% | viability, T/C [28] 95.9% | viability, T/C [29] 93.9% | viability, T/C [30] 97.2% | viability, T/C [31] 106% | viability, T/C [32] 95.9% | viability, T/C [33] 104% | viability, T/C [34] 94.3% | viability, T/C [35] 91.3%

COc1cc(C2c3cc4c(cc3C(OC3OC5COC(C)OC5C(O)C3O)C3COC(=O)C23)OCO4)cc(OC)c1O (stereo unspecified)
> 3000 nM: IC50 (curve of compound)
inactive: viability, T/C (compound 0.00949 µM) 98.3% and 98.5% | viability, T/C (compound 0.03 µM) 99.7% and 101% | viability, T/C (compound 0.0949 µM) 98.6% and 112% | viability, T/C (compound 0.3 µM) 108% and 112% | viability, T/C (compound 0.949 µM) 90.5% and 81.5% | viability, T/C (compound 3 µM) 65.7% and 59.9%

O=C(C=Cn1cnc(-c2cc(C(F)(F)F)cc(C(F)(F)F)c2)n1)NNc1cnccn1 + NC1CCC(NC2CC2c2ccccc2)CC1
active: viability, T/C [37] 9.29%
< 3.16 nM: IC50 [1] | IC50 [2] | IC50 [3] | IC50 [4] | IC50 [5]
inactive: viability, T/C [8] 32.9% | viability, T/C [9] 27.2% | viability, T/C [10] 22.3% | viability, T/C [11] 15.1% | viability, T/C [36] 14.4% | viability, T/C [14] 31.6% | viability, T/C [15] 25.9% | viability, T/C [16] 19.7% | viability, T/C [17] 14.1% | viability, T/C [38] 14.5% | viability, T/C [39] 10.1% | viability, T/C [20] 38% | viability, T/C [21] 25.1% | viability, T/C [22] 22.3% | viability, T/C [23] 17.1% | viability, T/C [40] 15.7% | viability, T/C [41] 10.4% | viability, T/C [26] 30.6% | viability, T/C [27] 29.2% | viability, T/C [28] 21.1% | viability, T/C [29] 17.1% | viability, T/C [42] 13.9% | viability, T/C [43] 12.9% | viability, T/C [32] 38.2% | viability, T/C [33] 25.6% | viability, T/C [34] 16% | viability, T/C [35] 19.1% | viability, T/C [44] 14.5% | viability, T/C [45] 11.9%

O=C(C=Cn1cnc(-c2cc(C(F)(F)F)cc(C(F)(F)F)c2)n1)NNc1cnccn1 + NC1CC1c1ccc(-c2cccc(O)c2)cc1
< 3.16 nM: IC50 [1] | IC50 [2] | IC50 [3] | IC50 [4] | IC50 [5]
inactive: viability, T/C [8] 32.5% | viability, T/C [9] 27.1% | viability, T/C [10] 19.8% | viability, T/C [11] 14.6% | viability, T/C [36] 10.4% | viability, T/C [14] 33.1% | viability, T/C [15] 25.6% | viability, T/C [16] 20.7% | viability, T/C [17] 12.4% | viability, T/C [38] 10.7% | viability, T/C [20] 31.3% | viability, T/C [21] 31.5% | viability, T/C [22] 19.6% | viability, T/C [23] 12.1% | viability, T/C [40] 10.6% | viability, T/C [26] 45.6% | viability, T/C [27] 31.5% | viability, T/C [28] 15.9% | viability, T/C [29] 14% | viability, T/C [42] 10.2% | viability, T/C [43] 10.3% | viability, T/C [32] 36.2% | viability, T/C [33] 29.2% | viability, T/C [34] 18.3% | viability, T/C [35] 15.9% | viability, T/C [44] 12.4% | viability, T/C [45] 11.9%
active: viability, T/C [37] 7.16% | viability, T/C [39] 8.26% | viability, T/C [41] 9.55%

CC(C)CC(NC(=O)CNC(=O)c1cc(Cl)ccc1Cl)B1OC(=O)CC(CC(=O)O)(C(=O)O)O1 (stereo unspecified) + NC1CCC(NC2CC2c2ccccc2)CC1
18.6 nM: IC50 [1]
inactive: viability, T/C [6] 107% | viability, T/C [7] 109% | viability, T/C [8] 102% | viability, T/C [9] 78% | viability, T/C [10] 26.1% | viability, T/C [12] 106% | viability, T/C [13] 106% | viability, T/C [14] 101% | viability, T/C [15] 78.5% | viability, T/C [16] 29.5% | viability, T/C [18] 103% | viability, T/C [19] 105% | viability, T/C [20] 120% | viability, T/C [21] 71.9% | viability, T/C [22] 31.4% | viability, T/C [23] 7.57% | viability, T/C [24] 99.5% | viability, T/C [25] 107% | viability, T/C [26] 102% | viability, T/C [27] 85.8% | viability, T/C [28] 31.9% | viability, T/C [30] 102% | viability, T/C [31] 104% | viability, T/C [32] 105% | viability, T/C [33] 75.7% | viability, T/C [34] 33%
19.5 nM: IC50 [2]
21.5 nM: IC50 [4]
20.1 nM: IC50 [5]
active: viability, T/C [11] 8.24% | viability, T/C [17] 8.69% | viability, T/C [29] 9.23% | viability, T/C [35] 6.12%
18.7 nM: IC50 [3]

NS(=O)(=O)OCC1CC(n2ccc3c(NC4CCc5ccccc54)ncnc32)CC1O (stereo unspecified) + NC1CC1c1ccc(-c2cccc(O)c2)cc1
> 3000 nM: IC50 [1] | IC50 [2] | IC50 [3] | IC50 [4] | IC50 [5]
inactive: viability, T/C (second compound 0.1 µM, first compound 0.00949 µM) 83.6% | viability, T/C (second compound 0.1 µM, first compound 0.03 µM) 103% | viability, T/C (second compound 0.1 µM, first compound 0.0949 µM) 68% | viability, T/C (second compound 0.1 µM, first compound 0.3 µM) 82.2% | viability, T/C (second compound 0.1 µM, first compound 0.949 µM) 75.1% | viability, T/C (second compound 0.1 µM, first compound 3 µM) 57.5% | viability, T/C (second compound 0.316 µM, first compound 0.00949 µM) 77.8% | viability, T/C (second compound 0.316 µM, first compound 0.03 µM) 99.8% | viability, T/C (second compound 0.316 µM, first compound 0.0949 µM) 69.7% | viability, T/C (second compound 0.316 µM, first compound 0.3 µM) 80.5% | viability, T/C (second compound 0.316 µM, first compound 0.949 µM) 79.7% | viability, T/C (second compound 0.316 µM, first compound 3 µM) 60.7% | viability, T/C (second compound 1 µM, first compound 0.00949 µM) 72.3% | viability, T/C (second compound 1 µM, first compound 0.03 µM) 83.9% | viability, T/C (second compound 1 µM, first compound 0.0949 µM) 66.2% | viability, T/C (second compound 1 µM, first compound 0.3 µM) 72% | viability, T/C (second compound 1 µM, first compound 0.949 µM) 66% | viability, T/C (second compound 1 µM, first compound 3 µM) 63.6% | viability, T/C (second compound 3.16 µM, first compound 0.00949 µM) 71.6% | viability, T/C (second compound 3.16 µM, first compound 0.03 µM) 68.1% | viability, T/C (second compound 3.16 µM, first compound 0.0949 µM) 64.3% | viability, T/C (second compound 3.16 µM, first compound 0.3 µM) 68.7% | viability, T/C (second compound 3.16 µM, first compound 0.949 µM) 56% | viability, T/C (second compound 3.16 µM, first compound 3 µM) 64.3% | viability, T/C (second compound 10 µM, first compound 0.00949 µM) 64.4% | viability, T/C (second compound 10 µM, first compound 0.03 µM) 87.9% | viability, T/C (second compound 10 µM, first compound 0.0949 µM) 58.6% | viability, T/C (second compound 10 µM, first compound 0.3 µM) 65.8% | viability, T/C (second compound 10 µM, first compound 0.949 µM) 63% | viability, T/C (second compound 10 µM, first compound 3 µM) 57%

NS(=O)(=O)OCC1CC(n2ccc3c(NC4CCc5ccccc54)ncnc32)CC1O (stereo unspecified)
> 3000 nM: IC50 (curve of compound)
inactive: viability, T/C (compound 0.00949 µM) 109% and 80.7% | viability, T/C (compound 0.03 µM) 94.8% and 79.4% | viability, T/C (compound 0.0949 µM) 75.2% and 67.4% | viability, T/C (compound 0.3 µM) 83.8% and 77.4% | viability, T/C (compound 0.949 µM) 79.3% and 74.5% | viability, T/C (compound 3 µM) 67.7% and 66.8%

Cn1ncnc1C1c2n[nH]c(=O)c3cc(F)cc(c23)NC1c1ccc(F)cc1 (stereo unspecified)
> 100 nM: IC50 (curve of compound)
inactive: viability, T/C (compound 0.000316 µM) 107% and 97.8% | viability, T/C (compound 0.001 µM) 104% and 106% | viability, T/C (compound 0.00316 µM) 99.1% and 105% | viability, T/C (compound 0.01 µM) 101% and 100% | viability, T/C (compound 0.0316 µM) 96.3% and 98.4% | viability, T/C (compound 0.1 µM) 96.8% and 95.6%

From PubChem BioAssay AID1918958 (Molecular Pharmacology Branch, DTP, NCI, 2023)
